Results reported in article PMC9863764, “Roles of Human Liver Cytochrome P450 Enzymes in Tenatoprazole Metabolism” (Pharmaceutics, 2022).
“And” between values parts separate entries of the source, which are not always exact repeats. Identical values can stand only once.

Key:
Type in all cases: in vitro ADME
[1] = test system: human liver microsomes (HLMs); experiment: Time course of oxidation of tenatoprazole and tenatoprazole sulfide by human liver microsomes (HPLC); settings: human, 12 h, 500 μM, pH 7.4
Experimental: A racemate of tenatoprazole was used in this work because the chiral tenatoprazoles currently are not commercially available. The reactions using HLMs contained incubation at 37 °C in 0.25 mL mixtures containing P450 (0.5 mg protein/mL) in 100 mM potassium phosphate buffer (pH 7.4), an NADPH-generating system (NGS, final concentration of 10 mM glucose-6-phosphate, 0.50 mM NADP^+, 1.0 IU yeast glucose-6-phosphate dehydrogenase per mL), and 0.1 mM of tenatoprazole or tenatoprazole sulfide. Incubations generally were performed for 2 h in the presence or absence of the NGS. Tenatoprazole and its metabolites were extracted twice using cold ethyl acetate as an organic solvent. Then centrifugation (1000× g, 20 min) was done to separate the organic layer from the aqueous layer. Omeprazole was added to this solution as an internal standard (IS) at a final 20 μM concentration. The organic layer was concentrated under nitrogen gas stream. The dried residues were then dissolved in the mobile phase (180 μL) and 30 μL was injected onto the column.
High-performance liquid chromatography (HPLC) was performed on the basis of a previously developed method for tenatoprazole and its metabolites, as described elsewhere. The analytical column was a Gemini C18 column (4.6 × 150 mm, 5 μm; Phenomenex), and the HPLC mobile phase consisted of acetonitrile and 5 mM potassium phosphate buffer (pH 7.3) (25:75, v/v). The substrate and its metabolites were detected at A302. The HPLC profile of the authentic compounds (i.e., tenatoprazole and its metabolites) were measured to compare to identify the major metabolites of tenatoprazole and tenatoprazole sulfide produced by HLMs.
The time course of the oxidation of tenatoprazole and tenatoprazole sulfide by HLMs (0.5 mg protein/mL) was analyzed to the estimated yield of metabolites and percentage of each metabolite using 0.60 mM substrate in 0.25 mL of 0.10 M potassium phosphate buffer (pH 7.4). After NGS was added to initiate the reaction, the samples were incubated for the designated time (i.e., 2, 5, 10, and 30 min, and 1, 2, 4, 8, 12, and 24 h) at 37 °C. Product formation was quantified using HPLC analysis, as mentioned above.
Calibration standard curves of tenatoprazole were made using a blank control sample (a reaction mixture without substrate and IS) and 12 samples containing tenatoprazole and omeprazole (IS) covering the concentration ranges of 1–500 μM, as described previously. The peak area ratio of tenatoprazole to IS was linear with respect to the analyte concentration over the range of 1–500 μM. The metabolites were quantified by comparing the peak areas of each metabolite to the mean peak areas of the IS (20 μM omeprazole).

[2] = target: T1, human CYP3A4 (Homo sapiens, UniProt P08684); experiment: Sulfoxidation of tenatoprazole sulfide by recombinant CYP3A4 (chiral chromatography)
T1 construct: made in house; host or cells: Escherichia coli (membrane fractions)
Experimental: The sulfoxidation reaction of tenatoprazole sulfide by CYP3A4 was measured by chiral chromatography. […] The reaction was initiated by adding NGS at 37 °C. […] After the residues were solubilized in 180 μL mobile phase, 30 μL samples were injected onto a Chiralpak AD column (4.6 × 150 mm, 10 μm; Daicel Corporation, Osaka, Japan) with a hexane-ethanol mixture (30:70, v/v) as the mobile phase. The products formed were analyzed by HPLC at […]. […] The kinetic parameters (kcat and Km) were determined by using a Michaelis-Menten nonlinear regression analysis with GraphPad Prism (GraphPad Software, San Diego, CA, USA).

[3] = target: T1, human CYP3A4; experiment: Steady-state kinetics of tenatoprazole oxidation by recombinant CYP3A4; settings: 30 min incubation, LC-QTOF-MS
Experimental: Pooled liver microsomes from human samples were obtained from ThermoFisher Scientific (Waltham, MA, USA). […] Membrane fractions expressing both P450 and CPR of E. coli were prepared as described previously and were used for the catalytic activity assays. […] The reaction was started by adding NGS and the incubation was continued for the indicated time at 37 °C. Incubation was then stopped by adding ice-chilled ethyl acetate (0.50 mL) and omeprazole (IS) was added to a final concentration of 20 μM. […] Phenomenex, Torrance, CA, USA). The products formed were analyzed by HPLC at […]. The HPLC profile of the authentic chemicals (i.e., tenatoprazole, tenatoprazole sulfide, and their metabolites) were used to identify the major metabolites of tenatoprazole and tenatoprazole sulfide produced by the recombinant P450s. […] The kinetic parameters (kcat and Km) were determined by using a Michaelis-Menten nonlinear regression analysis with GraphPad Prism (GraphPad Software, San Diego, CA, USA). To further characterize the nature of the metabolites, the reaction mixtures were additionally analyzed by a 6530 Quadrupole Time-of-Flight (QTOF) mass spectrometer (MS) (Agilent, Santa Clara, CA, USA) coupled with a 1290 Infinity ultra-performance liquid chromatography (UPLC) system (Agilent). […] The reaction was initiated by adding NGS at 37 °C. […] Then, the upper layer was transferred to a glass tube and dried under nitrogen stream. The residues were reconstituted in 0.30 mL acetonitrile, then 1 μL samples were injected into an LC-MS system. The analytical column was a Hypersil Gold C18 column (100 × 2.1 mm, 1.9 μm; ThermoFisher Scientific). […] A gradient program was used for HPLC separation, and the flow rate was 0.4 mL/min. […] The column and autosampler were kept at 35 °C and 4 °C, respectively, during analysis. Electrospray ionization was performed in the positive ion mode. The sheath gas flow rate was 8 L/min. The flow rate of drying gas was 12 L/min at 350 °C, and the nebulizer's temperature was set at 350 °C. The capillary voltage was 4500 V in the positive mode, and that of the fragmentor was 175 V. Data acquisition were done over a scan range from 50 m/z to 1000 m/z in the centroid mode. A reference compound (C18H18O6N3P3F24; [M+H]^+ = 922.0098) was used to correct all of the masses. Tandem mass spectrometry (MS/MS) data were acquired in profile mode via autoanalysis for structural characterization with 30 eV of the collision energy.

T1 sequence (P08684 whole entry): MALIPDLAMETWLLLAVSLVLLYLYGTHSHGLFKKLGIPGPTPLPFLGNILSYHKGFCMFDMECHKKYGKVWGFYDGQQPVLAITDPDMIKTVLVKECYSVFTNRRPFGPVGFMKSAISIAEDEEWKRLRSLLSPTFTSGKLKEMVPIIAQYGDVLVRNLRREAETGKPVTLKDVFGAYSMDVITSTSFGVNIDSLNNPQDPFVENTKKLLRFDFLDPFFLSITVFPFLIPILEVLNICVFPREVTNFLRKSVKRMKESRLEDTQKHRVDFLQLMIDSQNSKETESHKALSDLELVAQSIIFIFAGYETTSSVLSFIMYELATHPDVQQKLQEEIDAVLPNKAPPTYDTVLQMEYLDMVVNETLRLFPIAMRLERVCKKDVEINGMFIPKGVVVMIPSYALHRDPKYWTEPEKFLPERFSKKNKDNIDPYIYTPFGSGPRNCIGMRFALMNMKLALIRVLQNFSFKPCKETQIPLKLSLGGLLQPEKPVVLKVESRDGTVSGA

COc1ccc2[nH]c(SCc3ncc(C)c(OC)c3C)nc2n1 [tenatoprazole sulfide, Tenatoprazole sulfide]
conversion yield to tenatoprazole sulfide [1]: 94.8%
tenatoprazole sulfide remained ([1]; microsomes): More than 99%
sulfoxidation activity to produce tenatoprazole ([2]; recombinant CYP3A4, substrate tenatoprazole sulfide): showed the sulfoxidation activity

COc1ccc2[nH]c([S@+]([O-])Cc3ncc(C)c(OC)c3C)nc2n1 [R-tenatoprazole]
fold higher catalytic efficiency of R-tenatoprazole formation than S-tenatoprazole formation ([2]; substrate tenatoprazole sulfide, CYP3A4): 1.7 fold
kcat of product formation ([2]; substrate tenatoprazole sulfide, recombinant CYP3A4, chiral chromatography, label = product formed): 0.0667 s⁻¹ and 0.0667 ± 0.005 s⁻¹

COc1ccc2[nH]c(SCc3c(C)c(OC)c(CO)c[n+]3[O-])nc2n1 [1′-N-oxy-5′-OH tenatoprazole sulfide, 1′-N-oxy-5′-hydroxytenatoprazole sulfide]
amount of metabolite observed in CYP3A4-catalyzed reaction [3]: only trace amounts
